The record followed here is patent publication US8975264B2, “Compound acting as a cannabinoid receptor-1 inhibitor” (Amorepacific Corporation, priority 2010, dated 2015).

Molecules are shown by their SMILES.

In the test the target is human CB1 (cannabinoid receptor 1) (Homo sapiens, UniProt P21554). Briefly: CB1 receptor inhibition effect: calcium ion influx assay (Fluo-4 NW) in Chem-1 cells after 1 μM R-(+)-WIN55212-2. To be noted: calcium ion influx in Chem-1 cells expressing human CB1, 1 μM R-(+)-WIN55212-2. Type of test: cell-based. Here is the method: When cells in which the cannabinoid receptor 1 (CB1) is stably expressed are treated with a CB1 receptor agonist, the CB1 receptor is activated and influx of calcium ions into the cells increases. CB1 receptor inhibition effect of a test compound can be evaluated by measuring the degree of calcium influx inhibition after treating with the test compound.
human CB1 (cannabinoid receptor 1), sequence (P21554 whole entry): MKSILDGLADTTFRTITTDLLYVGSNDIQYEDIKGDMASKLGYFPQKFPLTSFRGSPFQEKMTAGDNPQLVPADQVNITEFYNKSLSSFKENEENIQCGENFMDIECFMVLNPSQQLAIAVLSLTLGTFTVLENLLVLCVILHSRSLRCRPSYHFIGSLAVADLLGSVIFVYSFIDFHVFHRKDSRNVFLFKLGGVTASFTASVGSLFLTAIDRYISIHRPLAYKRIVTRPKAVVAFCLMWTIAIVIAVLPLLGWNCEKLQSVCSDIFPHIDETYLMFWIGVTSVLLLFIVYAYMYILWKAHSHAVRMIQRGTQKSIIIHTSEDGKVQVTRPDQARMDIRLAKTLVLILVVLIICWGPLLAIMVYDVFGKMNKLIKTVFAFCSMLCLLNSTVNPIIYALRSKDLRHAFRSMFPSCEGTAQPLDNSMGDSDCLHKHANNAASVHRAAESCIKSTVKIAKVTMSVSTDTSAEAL
First, Chem-1 cells (Chemicon International, #HTS019C) in which human CB1 cDNA is expressed stably were seeded onto a 96-well cell culture plate at a density of ˜50,000 cells/well and incubated overnight in a 5% CO2 incubator at 37° C. The next day, the culture medium was discarded and the cells were cautiously washed once using an assay buffer (HBSS containing 20 mM HEPES and 2.5 mM probenecid) with 200 μL/well. Calcium ion influx was measured using an assay kit (Fluo-4 NW calcium assay kit: Molecular Probes™, #F36206) according to the manufacturer's instructions. The compounds of Examples of desired concentration to be measured were comprised to 0.5% DMSO. For control, only 0.5% DMSO was used without the compounds of Examples. Reaction time was 10 minutes. After treating the Chem-1 cells stably expressing the CB1 receptor with 1 μM R-(+)-WIN55212-2 (Sigma, #W102), a CB1 receptor agonist, calcium ion (Ca^2+) flux induced thereby was measured for 80 seconds using Flex Station 3 (Molecular Device, USA).
The difference in calcium ion concentration of the cells treated with the compounds of Examples or those treated with 1 μM R-(+)-WIN55212-2 was obtained from the difference of the maximum and minimum values during the 80 seconds. Then, % inhibition of the compounds for the CB1 receptor was calculated using the following equation. % inhibition={1−(ΔRFUcompound−ΔRFUBlank)/(ΔRFUControl−ΔRFUBlank)}×100 [Equation]
ΔRFU: maximum relative fluorescence units−minimum relative fluorescence units
ΔRFUCompound: difference in maximum and minimum RFUs in the well where the compounds of Examples dissolved in DMSO to a final concentration of 0.5% and 1 μM R-(+)-WIN55212-2 dissolved in DMSO to a final concentration of 0.5% were added
ΔRFUBlank: difference in maximum and minimum RFUs in the well to which only 1% DMSO was added
ΔRFUControl: difference in maximum and minimum RFUs in the well where 0.5% DMSO and 1 μM R-(+)-WIN55212-2 dissolved in DMSO to a final concentration of 0.5% were added
Usually IC50 stands for the concentration needed to halve the response being measured. Regarding `Cc1nn2c(-c3cccc(Cl)c3)cc(N3CCC[C@H]3CO)nc2c1-c1ccc(C(F)(F)F)cc1` [Example 173], the concentration for half-maximal inhibition (IC50) was found to be 250 nM.
Take `CCc1ccc(-c2c(C)nn3c(-c4cccc(Cl)c4)cc(N4CCC[C@H]4CO)nc23)cc1` [Example 174]: the half-maximal inhibitory concentration (IC50) came out at 220 nM.
In the case of `Cc1ccc(-c2c(C)nn3c(-c4cccc(Cl)c4)cc(N4CCC[C@H]4CO)nc23)cc1F` [Example 176], the half-maximal inhibitory concentration (IC50) came out at 270 nM.
As to `COc1cccc(-c2cc(N3CCC[C@H]3CO)nc3c(-c4ccc(C(F)F)cc4)c(C)nn23)c1` [Example 178], the IC50 came to 120 nM.
For `Cc1ccc(-c2cc(N3CCC[C@H]3CO)nc3c(-c4ccc(C(F)(F)F)cc4)c(C)nn23)cc1` [Example 180] the value was 410 nM.
Under `CCc1ccc(-c2c(C)nn3c(-c4ccc(C)cc4)cc(N4CCC[C@H]4CO)nc23)cc1` [Example 182] stands 310 nM.
For `COc1cccc(-c2cc(N3CCC[C@H]3CO)nc3c(-c4ccc(C)c(F)c4)c(C)nn23)c1` [Example 183], the concentration for half-maximal inhibition (IC50) came out at 130 nM.
For the molecule `Cc1ccc(-c2c(C)nn3c(-c4ccc(F)c(F)c4)cc(N4CCC[C@H]4CO)nc23)cc1F` [Example 184], the half-inhibitory concentration (IC50) was determined as 150 nM.
Regarding `Cc1ccc(-c2c(C)nn3c(-c4ccc(F)c(Cl)c4)cc(N4CCC[C@H]4CO)nc23)cc1F` [Example 185], the IC50 came out at 210 nM.
Under `COc1cccc(-c2cc(N3CCC[C@H]3CO)nc3c(-c4ccc(OC)c(F)c4)c(C)nn23)c1` [Example 186] stands 220 nM; under `COc1ccc(-c2c(C)nn3c(-c4ccc(F)c(F)c4)cc(N4CCC[C@H]4CO)nc23)cc1F` [Example 187], 390 nM; under `COc1cccc(-c2cc(N3CCC[C@H]3CO)nc3c(-c4ccc(F)cc4F)c(C)nn23)c1` [Example 190], 180 nM.
Regarding `Cc1nn2c(-c3ccc(F)c(Cl)c3)cc(N3CCC[C@H]3CO)nc2c1-c1ccc(F)cc1` [Example 192], the 50% inhibitory concentration (IC50) amounted to 150 nM.
Under `CCCOc1ccc(-c2c(C)nn3c(-c4ccc(C)cc4)cc(N4CCC[C@H]4CO)nc23)cc1` [Example 194] stands 200 nM; under `Cc1nn2c(-c3ccccc3)cc(N3CCC[C@H]3CO)nc2c1-c1ccccc1` [Example 195], 780 nM.
Under `OC[C@@H]1CCCN1c1cc(-c2ccc(F)cc2)n2nc(C3CC3)c(-c3ccc(Cl)cc3)c2n1` [Example 196, (S)-(1-(3-(4-chlorophenyl)-7-(4-fluorophenyl)-2-cyclopropylpyrazolo[1,5-a]pyrimidin-5-yl)pyrrolidin-2-yl)methanol] stands 140 nM; under `OC[C@@H]1CCCN1c1cc(-c2cccc(F)c2)n2nc(C3CC3)c(-c3ccc(Cl)cc3)c2n1` [Example 197], 150 nM.
With `CCc1nn2c(-c3ccc(F)cc3)cc(N3CCC[C@H]3CO)nc2c1-c1ccc(C)cc1` [Example 198, (S)-(1-(3-(4-methylphenyl)-7-(4-fluorophenyl)-2-ethylpyrazolo[1,5-a]pyrimidin-5-yl)pyrrolidin-2-yl)methanol], the IC50 amounted to 50 nM.
Consider `CCc1nn2c(-c3cccc(F)c3)cc(N3CCC[C@H]3CO)nc2c1-c1ccc(C)cc1` [Example 200], for which the half-maximal inhibitory concentration (IC50) was found to be 110 nM.
Under `CCOCc1nn2c(-c3cccc(F)c3)cc(N3CCC[C@H]3CO)nc2c1-c1ccc(C)cc1` [Example 202] stands 5 nM.
As to `CCOCc1nn2c(-c3cccc(OC)c3)cc(N3CCC[C@H]3CO)nc2c1-c1ccc(C)cc1` [Example 203], the IC50 amounted to 30 nM.
Under `CCOCc1nn2c(-c3cccc(C(F)(F)F)c3)cc(N3CCC[C@H]3CO)nc2c1-c1ccc(C)cc1` [Example 204] stands 6 nM; under `CCOCc1nn2c(-c3ccc(F)cc3)cc(N3CCC[C@H]3CO)nc2c1-c1ccc(Cl)cc1` [Example 206], 8 nM.
`CCOCc1nn2c(-c3cccc(C(F)(F)F)c3)cc(N3CCC[C@H]3CO)nc2c1-c1ccc(Cl)cc1` [Example 208]: the IC50 is 7 nM.
For `CCOCc1nn2c(-c3ccc(F)cc3)cc(N3CCC[C@H]3CO)nc2c1-c1ccc(OC)cc1` [Example 209], the IC50 is 53 nM.
`CCOCc1nn2c(-c3cccc(F)c3)cc(N3CCC[C@H]3CO)nc2c1-c1ccc(OC)cc1` [Example 210]: the half-inhibitory concentration (IC50) turned out to be 170 nM.
For `CCOCc1nn2c(-c3cccc(C(F)(F)F)c3)cc(N3CCC[C@H]3CO)nc2c1-c1ccc(OC)cc1` [Example 212], the half-inhibitory concentration (IC50) came to 26 nM.
`CCOCc1nn2c(-c3cccc(F)c3)cc(N3CCC[C@H]3CO)nc2c1-c1ccc2c(c1)OCO2` [Example 214]: the half-inhibitory concentration (IC50) was determined as 80 nM.
As for `CCOCc1nn2c(-c3cccc(Cl)c3)cc(N3CCC[C@H]3CO)nc2c1-c1ccc2c(c1)OCO2` [Example 217], the half-inhibitory concentration (IC50) was found to be 150 nM.
For `CCOCc1nn2c(-c3cccc(C)c3)cc(N3CCC[C@H]3CO)nc2c1-c1ccc(OC)cc1` [Example 220] the value was 30 nM; for `COCc1nn2c(-c3cccc(C(F)(F)F)c3)cc(N3CCC[C@H]3CO)nc2c1-c1ccc(OC)cc1` [Example 221, (S)-{1-[2-methoxymethyl-7-(3-(trifluoromethyl)phenyl)-3-(4-methoxyphenyl)-pyrazolo[1,5-a]pyrimidin-5-yl]pyrrolidin-2-yl}methanol], 7 nM; for `COCc1nn2c(-c3ccc(F)cc3)cc(N3CCC[C@H]3CO)nc2c1-c1ccc(OC)cc1` [Example 222], 8 nM.
With `COCc1nn2c(-c3cccc(F)c3)cc(N3CCC[C@H]3CO)nc2c1-c1ccc(OC)cc1` [Example 223], the IC50 was found to be 5 nM.
`COCc1nn2c(-c3cccc(OC)c3)cc(N3CCC[C@H]3CO)nc2c1-c1ccc(OC)cc1` [Example 226]: the IC50 was 50 nM.
As to `COCc1nn2c(-c3cccc(C)c3)cc(N3CCC[C@H]3CO)nc2c1-c1ccc(OC)cc1` [Example 227], the half-inhibitory concentration (IC50) was 48 nM.
For the molecule `COCc1nn2c(-c3cccc(C#N)c3)cc(N3CCC[C@H]3CO)nc2c1-c1ccc(OC)cc1` [Example 228], the IC50 worked out at 22 nM.
On to `COCc1nn2c(-c3cccc(Cl)c3)cc(N3CCC[C@H]3CO)nc2c1-c1ccc(OC)cc1` [Example 230], for which the concentration for half-maximal inhibition (IC50) was 18 nM.
With `COCc1nn2c(-c3ccc(F)cc3)cc(N3CCC[C@H]3CO)nc2c1-c1ccc(Cl)cc1` [Example 231], the half-inhibitory concentration (IC50) worked out at 7 nM.
Take `COCc1nn2c(-c3cccc(F)c3)cc(N3CCC[C@H]3CO)nc2c1-c1ccc(Cl)cc1` [Example 232]: the 50% inhibitory concentration (IC50) amounted to 4 nM.
On to `COCc1nn2c(-c3cccc(C(F)(F)F)c3)cc(N3CCC[C@H]3CO)nc2c1-c1ccc(Cl)cc1` [Example 233], for which the IC50 came to 6 nM.
As for `COCc1nn2c(-c3cccc(C)c3)cc(N3CCC[C@H]3CO)nc2c1-c1ccc(Cl)cc1` [Example 234], the IC50 is 15 nM.
With `COCc1nn2c(-c3cccc(C(F)(F)F)c3)cc(N3CCC[C@H]3CO)nc2c1-c1ccc2c(c1)OCO2` [Example 238], the IC50 is 24 nM.
As for `CCOCc1nn2c(-c3ccc(F)cc3)cc(N(C)CCO)nc2c1-c1ccc(C)cc1` [Example 239, 2-{[2-ethoxymethyl-7-(4-fluorophenyl)-3-(4-methylphenyl)-pyrazolo[1,5-a]pyrimidin-5-yl]methylamino}ethanol], the half-maximal inhibitory concentration (IC50) was 28 nM.
For `CCOCc1nn2c(-c3cccc(F)c3)cc(N(C)CCO)nc2c1-c1ccc(C)cc1` [Example 240], the IC50 is 10 nM.
For the molecule `CCOCc1nn2c(-c3cccc(C(F)(F)F)c3)cc(N(C)CCO)nc2c1-c1ccc(C)cc1` [Example 241], the IC50 is 10 nM.
For `CCOCc1nn2c(-c3cccc(F)c3)cc(N(C)CCO)nc2c1-c1ccc(Cl)cc1` [Example 243] the value was 7 nM; for `CCOCc1nn2c(-c3cccc(C(F)(F)F)c3)cc(N(C)CCO)nc2c1-c1ccc(Cl)cc1` [Example 244], 7 nM.
On to `CCOCc1nn2c(-c3ccc(F)cc3)cc(N(C)CCO)nc2c1-c1ccc(OC)cc1` [Example 245], for which the IC50 turned out to be 440 nM.
With `CCOCc1nn2c(-c3cccc(C(F)(F)F)c3)cc(N(C)CCO)nc2c1-c1ccc(OC)cc1` [Example 247], the half-inhibitory concentration (IC50) amounted to 16 nM.
For `CCOCc1nn2c(-c3cccc(Cl)c3)cc(N(C)CCO)nc2c1-c1ccc(OC)cc1` [Example 248], the IC50 stood at 600 nM.
Regarding `CCOCc1nn2c(-c3cccc(OC)c3)cc(N(C)CCO)nc2c1-c1ccc2c(c1)OCO2` [Example 252], the IC50 came out at 100 nM.
Regarding `CCOCc1nn2c(-c3cccc(C(F)(F)F)c3)cc(N(C)CCO)nc2c1-c1ccc2c(c1)OCO2` [Example 253], the concentration for half-maximal inhibition (IC50) amounted to 190 nM.
Consider `CCOCc1nn2c(-c3cccc(Cl)c3)cc(N(C)CCO)nc2c1-c1ccc2c(c1)OCO2` [Example 254], for which the 50% inhibitory concentration (IC50) turned out to be 130 nM.
